Experimental data from patent publication EP0563814A2, “Carbonic acid esters of 2-amino-7-(1,3-dihydroxy-2-propoxymethyl)purines, their preparation and their use as antiviral agents” (HOECHST AKTIENGESELLSCHAFT, priority 1992, dated 1993).
Read-outs that look alike come from different tables or passages of the source.

Legend:
[1] = tested on: Herpes simplex 1 Virus (HSV-1); experiment: Activity against systemic HSV-1 infection in the NMRI mouse, oral treatment; format: in vivo, NMRI-Mäuse; settings: i.p. infection, observation two weeks
From the text: Wirkung gegen systemische Herpes simplex 1 Virus (HSV-1) Infektion: NMRI-Mäuse, spezifisch pathogenfrei, im Gewicht von 15-18 g wurden intraperitoneal mit HSV-1 infiziert und anschließend mit den erfindungsgemäßen Verbindungen oral therapiert. Die Behandlung erfolgte erstmals 3 Stunden nach der Infektion und wurde zweimal täglich über 4 Tage fortgesetzt. Der Behandlungserfolg wurde anhand des Krankheitsverlaufes und der Überlebensrate gegenüber der unbehandelten Infektionskontrolle bestimmt. Letztere erhielt anstelle der erfindungsgemäßen Verbindungen physiologische Kochsalzlösung appliziert. Die Beobachtungszeit betrug zwei Wochen. Tabelle 1 zeigt die Ergebnisse dieser Untersuchung. Tabelle 1

[2] = Oral bioavailability in the mouse; format: in vivo, Maus; settings: for AUC(0-inf): analyte Formel 1', read-out: AUD (0-->oo) (converted)
From the text: Folgende Bioverfügbarkeiten der Verbindungen der Formel 1' wurden bei Mäusen nach oraler Gabe der erfindungsgemäßen Verbindungen ermittelt: […]

| Bioverfügbarkeit ([2]; i.v., 25 mg/kg, availability of Formel 1') | AUC(0-inf) ([2]; in vivo, iv, 25 mg/kg) | AUC(0-inf) ([2]; in vivo, po, 100 mg/kg) | bioavailability ([2]; in vivo, po, 100 mg/kg, availability of Formel 1', read-out: Bioverfügbarkeit) | Structure (SMILES) | Überlebende/ Gruppengröße ([1]; 9 x 30 µmol/kg) | Überlebende/ Gruppengröße ([1]; 9 x 100 µmol/kg) | mittlere Überlebenszeit (Tage) ([1]; 9 x 10 µmol/kg) | Überlebende/ Gruppengröße ([1]; 9 x 10 µmol/kg) | mittlere Überlebenszeit (Tage) ([1]; 9 x 30 µmol/kg) | mittlere Überlebenszeit (Tage) ([1]; 9 x 100 µmol/kg) |
| --- | --- | --- | --- | --- | --- | --- | --- | --- | --- | --- |
| – | – | – | – | CCC(=O)OCC(COC(=O)CC)OCn1cnc2nc(N)ncc21 [Beispiel 3, 2-Amino-7-[(1,3-bis-propionyloxy-2-propoxy)methyl]purin] | 5/5 | 5/5 | – | – | – | – |
| 100% | 223 ng·h/mL | 154 ng·h/mL | 17.2% | Nc1ncc2c(ncn2COC(CO)CO)n1 [Formel 1', 2-Amino-7-[(1,3-dihydroxy-2-propoxy)methyl]purin, reference compound] | 1/5 | 5/5 | 10.5 ± 0.7 Tage | 3/5 | 9.5 ± 1.3 Tage | – |
| – | – | – | – | CCCC(=O)OCC(COC(=O)CCC)OCn1cnc2nc(N)ncc21 [Beispiel 2, 2-Amino-7-[(1,3-bis-butyryloxy-2-propoxy)methyl]purin] | 5/5 | 5/5 | – | – | – | – |
| – | – | – | – | CC(=O)OCC(COC(C)=O)OCn1cnc2nc(N)ncc21 [Beispiel 1, 2-Amino-7-[(1,3-bis-acetoxy-2-propoxy)methyl]purin] | 5/5 | 5/5 | > 14 Tage | 5/5 | > 14 Tage | > 14 Tage |
